# According to patent publication US20110097274A1, “Carbon-11 and fluorine-18 labeled radioligands for positron emission tomography (PET) imaging for the brain serotonin transporters” (priority 2002, published 2011):
# Values joined by “and” are separate entries in the source; they are usually repeats but may differ in a detail not shown here. Equal values may be shown once.
# Columns and labels:
# SERT [1] = assay: Baboon PET imaging: brain uptake, kinetic analysis and SERT parameters; type: in vivo
# In short: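 Two isoflurane-anaesthetised adult male baboons, each radioligand tested twice (test-retest); i.v. bolus, 91 min 3D emission scan with arterial sampling, MRI-defined regions. Brain uptake as % ID g^−1, with peak time and washout; VT from one-tissue compartment model (K1/k2) using arterial plasma input.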
# SERT [2] = target: T1, SERT (Homo sapiens, UniProt P31645); details: cited from earlier work
# T1 construct: consistent with values previously measured in six healthy humans (Parsey et al., 2000); host or cells: living human brain (PET, values quoted from Parsey et al. 2000, Ginovart et al. 2001)
# T1 sequence (P31645 whole entry): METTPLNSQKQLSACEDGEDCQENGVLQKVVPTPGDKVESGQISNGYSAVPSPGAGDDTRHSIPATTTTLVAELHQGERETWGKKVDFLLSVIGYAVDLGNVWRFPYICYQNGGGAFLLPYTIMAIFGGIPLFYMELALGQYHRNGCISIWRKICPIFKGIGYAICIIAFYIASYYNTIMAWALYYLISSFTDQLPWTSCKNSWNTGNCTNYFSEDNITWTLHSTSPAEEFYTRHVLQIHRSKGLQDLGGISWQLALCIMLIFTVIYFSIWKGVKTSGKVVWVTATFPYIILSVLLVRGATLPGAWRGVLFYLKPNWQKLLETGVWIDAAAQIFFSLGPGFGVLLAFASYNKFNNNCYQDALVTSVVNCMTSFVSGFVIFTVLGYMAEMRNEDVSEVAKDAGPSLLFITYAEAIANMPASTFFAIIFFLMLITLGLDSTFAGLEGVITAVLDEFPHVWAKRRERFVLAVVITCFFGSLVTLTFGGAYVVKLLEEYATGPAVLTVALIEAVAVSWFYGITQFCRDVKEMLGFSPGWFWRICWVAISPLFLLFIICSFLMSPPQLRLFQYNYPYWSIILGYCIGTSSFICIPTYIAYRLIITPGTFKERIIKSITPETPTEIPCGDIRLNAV
# [3] = humans, literature; cited from earlier work
# [4] = BP = VT ROI − VT CER, baboons, mean ± SD of four experiments
# [5] = Mean ± SD of four experiments in two baboons
# [6] = baboons, mean ± SD of four experiments
# [7] = last scan 90 minutes, baboons, mean ± SD of four experiments
# [8] = one-tissue compartment model, baboons, mean ± SD of four experiments
smiles,measurement,setting,value
[11CH3]Sc1ccc([C@H]2CN3CCC[C@H]3c3ccccc32)cc1 [[^11C]McN 5652],Binding potential Cingulate Cortex,SERT [1]; [4],5.4 ± 0.8 mL/g
same,Binding potential Hippocampus,SERT [1]; [4],9.5 ± 2.3 mL/g
same,Binding potential Midbrain,SERT [1]; [4],25.9 ± 6.1 mL/g
same,Binding potential Occipital Cortex,SERT [1]; [4],2.9 ± 1.6 mL/g
same,Binding potential Striatum,SERT [1]; [4],17.6 ± 4.0 mL/g
same,Binding potential Temporal Cortex,SERT [1]; [4],6.2 ± 1.8 mL/g
same,Binding potential Thalamus,SERT [1]; [4],28.8 ± 6.9 mL/g
same,Equilibrium specific to non-specific partition coefficient (V3″) Cingulate Cortex,"SERT [1]; Baboon A, single experiment",0.21 and 0.17
same,Equilibrium specific to non-specific partition coefficient (V3″) Hippocampus,"SERT [1]; Baboon A, single experiment",0.41 and 0.29
same,Equilibrium specific to non-specific partition coefficient (V3″) Midbrain,"SERT [1]; Baboon A, single experiment",1.16 and 0.78
same,Equilibrium specific to non-specific partition coefficient (V3″) Occipital Cortex,"SERT [1]; Baboon A, single experiment",0.13 and 0.18
same,Equilibrium specific to non-specific partition coefficient (V3″) Striatum,"SERT [1]; Baboon A, single experiment",0.81 and 0.49
same,Equilibrium specific to non-specific partition coefficient (V3″) Temporal Cortex,"SERT [1]; Baboon A, single experiment",0.34 and 0.23
same,Equilibrium specific to non-specific partition coefficient (V3″) Thalamus,"SERT [1]; Baboon A, single experiment",1.17 and 0.82
same,Equilibrium specific to non-specific partition coefficient (V3″) Cingulate Cortex,"SERT [1]; Baboon B, single experiment",0.20
same,Equilibrium specific to non-specific partition coefficient (V3″) Hippocampus,"SERT [1]; Baboon B, single experiment",0.38 and 0.30
same,Equilibrium specific to non-specific partition coefficient (V3″) Midbrain,"SERT [1]; Baboon B, single experiment",1.00 and 0.80
same,Equilibrium specific to non-specific partition coefficient (V3″) Occipital Cortex,"SERT [1]; Baboon B, single experiment",0.05 and 0.07
same,Equilibrium specific to non-specific partition coefficient (V3″) Striatum,"SERT [1]; Baboon B, single experiment",0.66 and 0.60
same,Equilibrium specific to non-specific partition coefficient (V3″) Temporal Cortex,"SERT [1]; Baboon B, single experiment",0.18 and 0.16
same,Equilibrium specific to non-specific partition coefficient (V3″) Thalamus,"SERT [1]; Baboon B, single experiment",1.15 and 1.00
same,Equilibrium specific to non-specific partition coefficient (V3″) Cingulate Cortex,SERT [1]; [5],0.19 and 0.19 ± 0.02
same,Equilibrium specific to non-specific partition coefficient (V3″) Hippocampus,SERT [1]; [5],0.34 and 0.34 ± 0.06
same,Equilibrium specific to non-specific partition coefficient (V3″) Midbrain,SERT [1]; [5],0.94 and 0.94 ± 0.18
same,Equilibrium specific to non-specific partition coefficient (V3″) Occipital Cortex,SERT [1]; [5],0.11 and 0.11 ± 0.06
same,Equilibrium specific to non-specific partition coefficient (V3″) Striatum,SERT [1]; [5],0.64 and 0.64 ± 0.13
same,Equilibrium specific to non-specific partition coefficient (V3″) Temporal Cortex,SERT [1]; [5],0.23 and 0.23 ± 0.08
same,Equilibrium specific to non-specific partition coefficient (V3″) Thalamus,SERT [1]; [5],1.04 and 1.04 ± 0.16
same,"K1, average of all regions and all animals",SERT [1]; baboons,0.93 ± 0.18 mL/g/min
same,"VT, average of all regions and all animals",SERT [1]; baboons,39.7 ± 11.8 mL/g
same,"k2, average of all regions and all animals",SERT [1]; baboons,0.025 ± 0.008 min⁻¹
same,Mean regional peak uptake time,"SERT [1]; baboons, mean of all regions",28 ± 12 min
same,Mean regional wash-out (% decrease between peak time and last scan),"SERT [1]; baboons, mean of all regions",24±13%
same,Regional uptake peak time Cerebellum,SERT [1]; [6],15 ± 3 min
same,Regional uptake peak time Cingulate Cortex,SERT [1]; [6],17 ± 3 min
same,Regional uptake peak time Hippocampus,SERT [1]; [6],36 ± 8 min
same,Regional uptake peak time Midbrain,SERT [1]; [6],39 ± 13 min
same,Regional uptake peak time Occipital Cortex,SERT [1]; [6],17 ± 3 min
same,Regional uptake peak time Striatum,SERT [1]; [6],34 ± 10 min
same,Regional uptake peak time Temporal Cortex,SERT [1]; [6],27 ± 7 min
same,Regional uptake peak time Thalamus,SERT [1]; [6],41 ± 6 min
same,Total brain uptake at 45 min,"SERT [1]; baboons, region encompassing the entire brain",0.016±0.002 % ID g^−1
same,"Regional activity wash-out: % decrease from peak to last scan, Cerebellum",SERT [1]; [7],44 ± 6%
same,"Regional activity wash-out: % decrease from peak to last scan, Cingulate Cortex",SERT [1]; [7],34 ± 3%
same,"Regional activity wash-out: % decrease from peak to last scan, Hippocampus",SERT [1]; [7],16 ± 3%
same,"Regional activity wash-out: % decrease from peak to last scan, Midbrain",SERT [1]; [7],8 ± 5%
same,"Regional activity wash-out: % decrease from peak to last scan, Occipital Cortex",SERT [1]; [7],34 ± 3%
same,"Regional activity wash-out: % decrease from peak to last scan, Striatum",SERT [1]; [7],18 ± 7%
same,"Regional activity wash-out: % decrease from peak to last scan, Temporal Cortex",SERT [1]; [7],24 ± 6%
same,"Regional activity wash-out: % decrease from peak to last scan, Thalamus",SERT [1]; [7],12 ± 4%
same,K1 Cerebellum,SERT [1]; [8],1.05 ± 0.20 mL/g/min
same,K1 Cingulate Cortex,SERT [1]; [8],1.01 ± 0.24 mL/g/min
same,K1 Hippocampus,SERT [1]; [8],0.74 ± 0.12 mL/g/min
same,K1 Midbrain,SERT [1]; [8],0.92 ± 0.12 mL/g/min
same,K1 Occipital Cortex,SERT [1]; [8],0.95 ± 0.18 mL/g/min
same,K1 Striatum,SERT [1]; [8],0.95 ± 0.12 mL/g/min
same,K1 Temporal Cortex,SERT [1]; [8],0.83 ± 0.19 mL/g/min
same,K1 Thalamus,SERT [1]; [8],1.03 ± 0.15 mL/g/min
same,K2 Cerebellum,SERT [1]; [8],0.038 ± 0.007 min⁻¹
same,K2 Cingulate Cortex,SERT [1]; [8],0.031 ± 0.007 min⁻¹
same,K2 Hippocampus,SERT [1]; [8],0.020 ± 0.003 min⁻¹
same,K2 Midbrain,SERT [1]; [8],0.017 ± 0.003 min⁻¹
same,K2 Occipital Cortex,SERT [1]; [8],0.031 ± 0.006 min⁻¹
same,K2 Striatum,SERT [1]; [8],0.021 ± 0.003 min⁻¹
same,K2 Temporal Cortex,SERT [1]; [8],0.025 ± 0.006 min⁻¹
same,K2 Thalamus,SERT [1]; [8],0.019 ± 0.003 min⁻¹
same,"VT Cerebellum (VT CER, nonspecific distribution volume)",SERT [1]; [8],27.7 ± 4.0 mL/g
same,VT Cingulate Cortex,SERT [1]; [8],33.1 ± 4.7 mL/g
same,VT Hippocampus,SERT [1]; [8],37.2 ± 5.9 mL/g
same,VT Midbrain,SERT [1]; [8],53.6 ± 9.3 mL/g
same,VT Occipital Cortex,SERT [1]; [8],30.6 ± 3.9 mL/g
same,VT Striatum,SERT [1]; [8],45.3 ± 7.0 mL/g
same,VT Temporal Cortex,SERT [1]; [8],33.9 ± 4.2 mL/g
same,VT Thalamus,SERT [1]; [8],56.5 ± 10.3 mL/g
same,V3″ medial prefrontal cortex,"SERT [2]; humans (Parsey et al., 2000)",0.08
same,V3″ cingulate cortex,"SERT [2]; humans, literature",0.21
same,V3″ hippocampus,"SERT [2]; humans, literature",0.49
same,V3″ midbrain,"SERT [2]; humans, literature",1.63
same,V3″ occipital cortex,"SERT [2]; humans, literature",0.17
same,V3″ striatum,"SERT [2]; humans, literature",1.03
same,V3″ temporal cortex,"SERT [2]; humans, literature",0.22
same,V3″ thalamus,"SERT [2]; humans, literature",0.92
same,VT CER (cerebellum distribution volume),"SERT [2]; humans, literature",17.8 ± 1.9 mL/g and 11.9 ± 3.3 mL/g
same,Data acquisition required for time-independent / stable VT or BP estimates,"SERT [2]; humans, regions with high SERT density such as the midbrain (Parsey et al., 2000)",at least 120 minutes
same,Parent fraction in plasma at 30 minutes,[3],59±10%
